Assay [1] deals with HCC cells (HLE, HLF, PLC/DC/19, Hep3B, PLC/PRF/5). Put plainly: 72-hour proliferation assay, all HCC cells. Type of assay: cell-based, human. As to conditions: Homo sapiens, same experimental conditions. How it is done: (§1) Proliferation assay: In 100 μl complete medium, 3,000 cells were seeded in wells of a 96-well plate and left overnight to allow complete attachment. The next day (at time t=0 hours), the medium was removed and replaced with 100 μl of fresh medium in the presence/absence of Sorafenib (2.5 μM), Regorafenib (2.5 μM), rhPRG4 (12.5 to 100 μg/ml). Dimethyl sulfoxide (DMSO) and PBS+0.01% Tween-20 were used as vehicles of Sorafenib/Regorafenib, and rhPRG4, respectively. Cells in triplicate wells for each cell line were fixed at t=0 hours with 4% paraformaldehyde (PFA, pH 7.6, 10 min incubation), then stained with crystal violet (CV) and thoroughly washed to remove the excess staining. After 72 hours, the cells were fixed by adding 100 μl of 4% PFA directly to the medium (2% final PFA concentration, 20 min incubation), and processed for CV staining as previously described. Then, 100 or 200 μl of 1% sodium dodecyl-sulphate were added to the wells and the plates were left under shaking until complete CV release from stained cells. Optical density was at 595 nm wavelength measured using a plate reader.

For another assay, the system named is CD44-shRNA HCC cells. Put plainly: 72-hour proliferation assay, CD44-silenced HCC cells. As to conditions: 2.5 μM drug; rhPRG4 0 to 100 μg/ml; p<0.05 to p<0.001. Type of assay: cell-based, human.
Description: Stable CD44 silencing: HLE and HLF cell lines were transduced with lentiviral particles carrying control non-targeting (V), or specific CD44-targeting shRNA sequences (A to D), and selected with puromycin dihydrochloride (Thermo Fisher Scientific) to obtain stable CD44 silencing, according to manufacturer instructions (OriGene Technologies, Inc., Rockville, Md. 20850, USA). Control-shRNA sequence (V) and CD44-shRNA sequence B were used in all the experiments involving CD44 downregulation.
as §1, with “After 72 hours, the cells were fixed by adding 100 μl of 4% PFA directly to the medium (2% final PFA concentration, 20 min incubation), and processed for CV staining as previously described. Then, 100 or 200 μl of 1% sodium dodecyl-sulphate were added to the wells and the plates were left under shaking until complete CV release from stained cells.” left out

A word on the IC50: it is the concentration needed to halve the response being measured. Read a high IC50 as weaker potency. Turning to `CNC(=O)c1cc(Oc2ccc(NC(=O)Nc3ccc(Cl)c(C(F)(F)F)c3)cc2)ccn1` [Sorafenib], the IC50 in assay [1] is about 5 µM. The “capacity in inhibiting cells proliferation in CD44 silenced cells compared to control cells” value with CD44-shRNA HCC cells is given as “significantly reduced”.
